Laboratory results published in US20070191336A1 (priority 2003, published 2007).
pIC50: −log10 of the molar value.

Each molecule was assayed against T1, phospho p-38 alpha kinase (Homo sapiens, UniProt Q16539) (assay: P-38 alpha kinase assay (spectrophotometric, pyruvate kinase/lactate dehydrogenase coupled)). Settings: Table 3; rates from […] to 2 h time frame.
T1 construct: purchased Panvera
Format: biochemical
Method: In this assay, the oxidation of NADH was continuously measured spectrophometrically. […] The reaction was initiated by adding ATP. The absorption at 340 nm was monitored continuously for up to 4 hours at 30° C. on Polarstar Optima plate reader (BMG). The kinase activity (reaction rate) was calculated from the slope at the time frame from 1.5 h to 2 h.
For inhibition determinations, test compounds were incubated with the reaction mixture for ˜5 min before adding ATP to start the reaction. […] IC50 values were calculated from a series of % inhibition values determined at a range of concentrations of each inhibitor using Prism to process the data and fit inhibition curves. Generally, the rates obtained at the time frame of 1.5 h to 2 h were used for these calculations.

T1 sequence (Q16539 whole entry): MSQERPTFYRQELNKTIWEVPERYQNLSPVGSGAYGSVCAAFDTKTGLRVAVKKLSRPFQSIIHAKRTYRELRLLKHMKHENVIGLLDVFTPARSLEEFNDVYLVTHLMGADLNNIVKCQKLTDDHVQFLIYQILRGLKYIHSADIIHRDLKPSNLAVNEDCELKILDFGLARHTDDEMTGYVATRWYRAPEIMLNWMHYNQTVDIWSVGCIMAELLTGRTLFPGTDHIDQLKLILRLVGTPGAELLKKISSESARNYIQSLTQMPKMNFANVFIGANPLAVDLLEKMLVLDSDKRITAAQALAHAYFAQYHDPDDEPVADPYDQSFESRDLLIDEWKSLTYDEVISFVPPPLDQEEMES

pIC50 | SMILES
6.93 | CC(C)(C)c1cc(NC(=O)Nc2cccc(C(F)(F)F)c2)n(-c2cccc(CO)c2)n1 [Example 408, 1-{3-t-butyl-1-[3-(hydroxymethyl)phenyl]-1H-pyrazol-5-yl}-3-(3-(trifluoromethyl)phenyl)urea]
7.85 | COc1cccc(-n2nc(-c3ccccc3)cc2NC(=O)Nc2cccc(Cl)c2Cl)c1 [Example 335]
7.49 | CC(=O)N1CCc2ccc(-n3nc(C(C)(C)C)cc3NC(=O)Nc3cccc(Cl)c3Cl)cc2C1 [Example 512, 1-[1-(2-acetyl-1,2,3,4-tetrahydroisoquinolin-7-yl)-3-t-butyl-1H-pyrazol-5-yl]-3-(2,3-dichlorophenyl)urea]
7.42 | CN(C)C(=O)NCc1cccc(-n2nc(C(C)(C)C)cc2NC(=O)Nc2cccc3ccccc23)c1 [Example 487, 1-{3-t-butyl-1-[3-(3,3-dimethylureidomethyl)phenyl]-1H-pyrazol-5-yl}-3-(naphthalen-1-yl)urea]
7.72 | C#CC(O)c1ccc(-n2nc(C(C)(C)C)cc2NC(=O)Nc2cccc3ccccc23)cc1 (stereo not drawn) [Example 464, 1-{3-t-butyl-1-[4-(1-hydroxyprop-2-ynyl)phenyl]-1H-pyrazol-5-yl}-3-(naphthalen-1-yl)urea]
7.38 | CC(C)(C)c1cc(NC(=O)Nc2cccc(Cl)c2Cl)n(-c2cccc(C(=O)O)c2)n1 [Example 477, 3-{3-t-butyl-5-[3-(2,3-dichlorophenyl)ureido]-1H-pyrazol-1-yl}benzoic acid]
6.49 | COc1cccc(-n2nc(C(C)(C)C)cc2NC(=O)Nc2cc(Cl)cc(Cl)c2)c1 [Example 319, 1-(3-t-butyl-1-(3-methoxyphenyl)-1H-pyrazol-5-yl)-3-(3,5-dichlorophenyl)urea]
6.38 | COc1cccc(-n2nc(C(C)(C)C)cc2NC(=O)Nc2ccc(Cl)c(C(F)(F)F)c2)c1 [Example 316, 1-(3-t-butyl-1-(3-methoxyphenyl)-1H-pyrazol-5-yl)-3-(4-chloro-3-(trifluoromethyl)phenyl)urea]
5.84 | CN(C)CCc1cccc(-n2nc(C(C)(C)C)cc2NC(=O)Nc2ccc(Cl)cc2)c1 [Example 372, 1-{3-t-butyl-1-[3-(2-(dimethylamino)ethyl]phenyl}-1H-pyrazol-5-yl)-3-(4-chlorophenyl)urea]
6.33 | CC(C)(C)c1cc(NC(=O)Nc2ccc(Cl)cc2)n(-c2ccc3c(c2)CNCC3)n1 [Example 510, 1-[3-t-butyl-1-(1,2,3,4-tetrahydroisoquinolin-7-yl)-1H-pyrazol-5-yl]-3-(4-chlorophenyl)urea]
6.17 | CC(C)(C)c1cc(NC(=O)Nc2ccc(Cl)cc2)n(-c2cccc(CN3C(=O)C(=O)N(c4ccccc4)C3=O)c2)n1 [Example 494, 1-(3-t-butyl-1-(3-[(2,4,5-trioxo-3-phenylimidazolidin-1-yl)methyl]phenyl}-1H-pyrazol-5-yl)-3-(4-chlorophenyl)urea]
6.74 | COc1cccc(-n2nc(C(C)(C)C)cc2NC(=O)Nc2ccccc2F)c1 [Example 344, 1-[3-t-butyl-1-(3-methoxy-phenyl)-1H-pyrazol-5-yl]-3-(2-fluorophenyl)urea]
6.24 | CC(C)c1cc(NC(=O)Nc2cccc3ccccc23)n(-c2ccc(C(O)C(F)(F)F)cc2)n1 (stereo not drawn) [Example 514, 1-(1-(4-(2,2,2-trifluoro-1-hydroxyethyl)phenyl)-3-isopropyl-1H-pyrazol-5-yl)-3-(naphthalen-1-yl)urea]
7.87 | CC(C)(C)c1cc(NC(=O)Nc2cccc(Cl)c2)n(-c2cccc(CO)c2)n1 [Example 406]
7.51 | COc1cccc(NC(=O)Nc2cc(C(C)(C)C)nn2-c2cccc(CO)c2)c1 [Example 409, 1-{3-t-butyl-1-[3-(hydroxymethyl)phenyl]-1H-pyrazol-5-yl}-3-(3-methoxyphenyl)urea]
7.40 | CC(C)(C)c1cc(NC(=O)Nc2ccc3c(c2)OCO3)n(-c2cccc(CO)c2)n1 [Example 397, 1-(benzo[d][1,3]dioxol-5-yl)-3-(3-t-butyl-1-(3-(hydroxymethyl)phenyl)-1H -pyrazol-5-yl)urea]
7.70 | O=C(Nc1cccc(Cl)c1Cl)Nc1cc(-c2ccccc2)nn1-c1cccc(CO)c1 [Example 459, 1-{3-phenyl-1-[3-(hydroxymethyl)phenyl]-1H-pyrazol-5-yl}-3-(2,3-dichlorophenyl)urea]
6.42 | CCOC(=O)c1cccc(-n2nc(C(C)(C)C)cc2NC(=O)Nc2cccc(Cl)c2Cl)c1 [Example 474, ethyl 3-{3-t-butyl-5-[3-(2,3-dichlorophenyl)ureido]-1H-pyrazol-1-yl}benzoate]
8.00 | CC(C)(C)c1cc(NC(=O)Nc2cccc(Cl)c2Cl)n(-c2cccc(CO)c2)n1 [Example 475, 1-[3-t-butyl-1-(3-hydroxymethyl-phenyl)-1H-pyrazol-5-yl]-3-(2,3-dichlorophenyl)-urea]
8.04 | CC(C)(C)c1cc(NC(=O)Nc2cccc3ccccc23)n(-c2ccc(OCC(=O)O)cc2)n1 [Example 520, 1-(3-t-butyl-1-(4-(carboxymethyl)oxyphenyl)-1H-pyrazol-5-yl)-3-(naphthalen-1-yl)urea]
7.89 | CC(Cc1cccc(-n2nc(C(C)(C)C)cc2NC(=O)Nc2cccc(Cl)c2Cl)c1)C(=O)O (stereo not drawn) [Example 426, 3-(3-{3-t-butyl-5-[3-(2,3-dichlorophenyl)ureido]-1H-pyrazol-1-yl}-phenyl)-2-methylpropanoic acid]
6.60 | COc1cccc(-n2nc(C(C)(C)C)cc2NC(=O)Nc2ccc3c(c2)OCO3)c1 [Example 329, 1-(benzo[d][1,3]dioxo-5-yl)-3-(3-t-butyl-1-(3-methoxyphenyl)-1H-pyrazol-5-yl)urea]
7.24 | CC(C)(C)c1cc(NC(=O)Nc2ccccc2F)n(-c2ccc(CC(=O)O)cc2)n1 [Example 306, 2-(4-(3-t-butyl-5-(3-(2-fluorophenyl)ureido)-1H-pyrazol-1-yl)phenyl)acetic acid]
6.06 | COc1cccc(NC(=O)Nc2cc(C(C)(C)C)nn2-c2cccc(CCN)c2)c1 [Example 382, 1-{1-[3-(2-aminoethyl)phenyl]-3-t-butyl-1H-pyrazol-5-yl}-3-(3-methoxyphenyl)urea]
5.96 | O=C(Nc1cccc(C(F)(F)F)c1)Nc1cc(-c2ccccc2)nn1-c1cccc(CO)c1 [Example 457, 1-{3-phenyl-1-[3-(hydroxymethyl)phenyl]-1H-pyrazol-5-yl}-3-(3-trifluoromethylphenyl)urea]

SMILES | pIC50
COc1cccc(-n2nc(C(C)(C)C)cc2NC(=O)Nc2ccc(Cl)c(Cl)c2)c1 [Example 317, 1-(3-t-butyl-1-(3-methoxyphenyl)-1H-pyrazol-5-yl)-3-(3,4-dichlorophenyl)urea] | 7.17
CC(C)(C)c1cc(NC(=O)Nc2ccccc2F)n(-c2cccc(CCC(=O)O)c2)n1 [Example 363, 3-(3-{3-t-butyl-5-[3-(2-fluorophenyl)ureido]-11H-pyrazol-1-yl}-phenyl)propionic acid] | 6.72
CC(C)(C)c1cc(NC(=O)Nc2cccc(Cl)c2Cl)n(-c2ccc(CO)cc2)n1 [Example 466, 1-{3-t-butyl-1-[4-(hydroxymethyl)phenyl]-1H-pyrazol-5-yl}-3-(2,3-dichloro-phenyl)urea] | 8.15
COc1cccc(-n2nc(C(C)(C)C)cc2NC(=O)Nc2cccc(Br)c2)c1 [Example 312, 1-(3-t-butyl-1-(3-methoxyphenyl)-1H-pyrazol-5-yl)-3-(3-bromophenyl)urea] | 6.46

Same assay, conditions: read-out: % Inhibition @ concentration, Table 3; at 0.1 uM

SMILES | inhibition at 0.1 µM
COc1ccc(-n2nc(C(C)(C)C)cc2NC(=O)Nc2cccc(C(F)(F)F)c2)cc1 [Example 347, 1-[3-t-butyl-1-(4-methoxyphenyl)-1H-pyrazol-5-yl]-3-(3-trifluoromethylphenyl)urea] | 8%
CC(C)(C)c1cc(NC(=O)Nc2cccc(Cl)c2Cl)n(-c2cccc(Cn3c(=O)[nH]n(-c4ccccc4)c3=O)c2)n1 [Example 499, 1-(3-t-butyl-1-{3-[(3,5-dioxo-1-phenyl-1,2,4-triazolidin-4-yl)methyl]phenyl}-1H-pyrazol-5-yl)-3-(2,3-dichlorophenyl)urea] | 78%

Same assay, conditions: read-out: % Inhibition @ concentration, Table 3; at 1 uM

SMILES | inhibition at 1 µM
CCOC(=O)C(C)Cc1cccc(-n2nc(C(C)(C)C)cc2NC(=O)Nc2cccc3ccccc23)c1 (racemic) [Example 200] | 73%
CCOC(=O)COc1ccc(-n2nc(C(C)(C)C)cc2NC(=O)Nc2ccc(Cl)cc2)cc1 [Example 525] | 11%
COc1ccc(-n2nc(C(C)(C)C)cc2NC(=O)Nc2cccc(C(F)(F)F)c2)cc1 [Example 347, 1-[3-t-butyl-1-(4-methoxyphenyl)-1H-pyrazol-5-yl]-3-(3-trifluoromethylphenyl)urea] | 31%
CC(C)(C)c1cc(NC(=O)Nc2ccc(F)cc2)n(-c2cccc(Cn3c(=O)[nH]n(-c4ccccc4)c3=O)c2)n1 [Example 498, 1-(3-t-butyl-1-{3-[(3,5-dioxo-1-phenyl-1,2,4-triazolidin-4-yl)methyl]phenyl}-1H-pyrazol-5-yl)-3-(4-fluorophenyl)urea] | 25%
CC(C)(C)c1cc(NC(=O)Nc2cccc(Cl)c2Cl)n(-c2cccc(Cn3c(=O)[nH]n(-c4ccccc4)c3=O)c2)n1 [Example 499, 1-(3-t-butyl-1-{3-[(3,5-dioxo-1-phenyl-1,2,4-triazolidin-4-yl)methyl]phenyl}-1H-pyrazol-5-yl)-3-(2,3-dichlorophenyl)urea] | 95%

Same assay, conditions: read-out: % Inhibition @ concentration, Table 3; at 10 uM

SMILES | inhibition at 10 µM
CCOC(=O)CCc1cccc(-n2nc(C)cc2NC(=O)Nc2ccc(Cl)cc2)c1 [Example 531, 3-(3-{5-[3-(4-chloro-phenyl)-ureido]-3-methyl-pyrazol-1-yl}-phenyl)-propionic acid ethyl ester] | 14%
COc1cccc(-n2nc(C)cc2NC(=O)Nc2cccc(Br)c2)c1 [Example 337, 1-(3-bromophenyl)-3-(1-(3-methoxyphenyl)-3-methyl-1H-pyrazol-5-yl)urea] | 8%

Same assay, conditions: read-out: % inhibition @ concentration, Table 2; at 10 uM

SMILES | inhibition at 10 µM
CC(C)(C)c1cc(NC(=O)Nc2cccc3ccccc23)n(-c2cccc(C(=O)N3C(=O)OC[C@H]3c3ccccc3)c2)n1 [Example 17, D-1-{5-tert-butyl-2-[3-(2-oxo-4-phenyl-oxazolidinyl-3-carbonyl)phenyl]-2H-pyrazol-3-yl}-3-(naphthalen-1-yl)urea] | 40%
